In patent US20180355359A1, “METHODS FOR DETERMINING RESISTANCE TO ANTICANCER THERAPY AND COMPOSITION USED THEREFOR” (SD GENOMICS CO., LTD., priority 2015, published 2018):

Legend:
[1] = system: K562 cell line which induced the T315I mutation; experiment: Survival rate (CCK-8 assay) of cell line with induced T315I somatic mutation; assay type: cell-based
Description: A cell line in which a somatic mutation of T315I was induced was prepared using the Clontech Guide-it CRISPR/Cas9 System and inoculated into a 96-well plate in which DMEM medium containing 10% FBS, 100 units/mL penicillin, and 100 μg/mL streptomycin at a concentration of 3×10^3 cells/well and cultured under the conditions of 37° C. and 5% CO2.

K562 = experiment: Survival rate (CCK-8 assay) of CML cell line K562; assay type: cell-based; settings: imatinib 0.6 μM
Description: (§1) CML cell lines (K562 and CML-T1 cell line) and a normal lymphoblastoid cell line (LCL) were inoculated into a 96-well plate in which DMEM medium containing 10% FBS, 100 units/mL penicillin, and […] streptomycin at a concentration of 3×10^3 cells/well and cultured under the conditions of 37° C. and 5% CO2.
(§2) In particular, the siRNAs used had the nucleotide sequences of SEQ ID NOS: 5 and 176 to 178.

CML-T1 cell line = experiment: Survival rate (CCK-8 assay) of CML cell line CML-T1; assay type: cell-based; settings: imatinib 0.6 μM
Description: as §1, §2

[2] = system: normal lymphoblastoid cell line (LCL); experiment: Survival rate (CCK-8 assay) of normal lymphoblastoid cell line; assay type: cell-based
Description: as §1, §2

phospho CrkL/CrkL ratio = experiment: Phospho-CRKL analysis (Phospho-CrkL (Tyr207) colorimetric cell-based ELISA) in K562
Description: A ratio of phosphorylated CRKL and CRKL (phospho CrkL/CrkL ratio) of the treated cell line was calculated using the Phospho-CrkL (Tyr207) Colorimetric Cell-Based enzyme linked immunosorbent assay (ELISA) kit and the results were compared (FIG. 10).

K562 cells = experiment: Cell cycle analysis (PI staining, FACS) in K562 cells; assay type: cell-based; settings: vs negative control siRNA
Description: (§3) CML cell lines (K562 cells and LAMA-84 cells) were treated with the two kinds of siRNAs having the nucleotide sequences of SEQ ID NOS: 5 and 176 to 178 (negative control siRNA or IS3 siRNA) and the cells were immobilized. These cells were subjected to PI staining and applied to FACSVerse (BD Biosciences, Franklin Lakes, N.J., U.S.A.) so as to measure the percentage of the cells located in the G0/G1 phase (FIGS. 11A and 11B).

LAMA-84 cells = experiment: Cell cycle analysis (PI staining, FACS) in LAMA-84 cells; assay type: cell-based; settings: vs negative control siRNA
Description: as §3

[3] = system: cancer cell lines of hematopoietic tissue or lymphatic tissue (LAMA84, KG-1, HL-60, NB-4, MOLM13, CCRF-CEM, U-937); experiment: Survival rate (CCK-8 assay) of cancer cell lines of hematopoietic or lymphatic tissue; assay type: cell-based; settings: 100 pmol siRNA per 200,000 cells, up to 72 hours; vs siCTRL; all 7 hematopoietic/lymphatic lines
Source text: (§4) Specifically, the cancer cell lines of hematopoietic tissue or lymphatic tissue (e.g., LAMA84 (chronic myeloid leukemia in blast crisis), KG-1 (acute myeloid leukemia, FAB M2), HL-60 (acute myeloid leukemia, FAB M2), NB-4 (acute promyelocytic leukemia), MOLM13 (acute myeloid leukemia, FAB M5B), CCRF-CEM (T acute lymphoblastic leukemia), and U-937 (histiocytic lymphoma)); solid cancer cell lines (e.g., IMR-32 (neuroblastoma, KCLB, 10127), SNU-478 (ampulla of vater adenocarcinoma), MG-63 (osteosarcoma), Hs578T (breast invasive ductal carcinoma, KCLB, 30126), U-87MG (glioblastoma), SNU-886 (hepatocellular carcinoma), MIA-PaCa-2 (pancreatic ductal adenocarcinoma), SK-MEL-2 (malignant melanoma), RD (embryonal rhabdomyosarcoma), Hs 746T (gastric adenocarcinoma), and J-82 (bladder carcinoma)) were dispensed into a 96-well plate at a concentration of 3,000 to 5,000 cell lines/well and incubated in a wet incubator (37° C. and 5% CO2) having an environment similar to that of the human body and cultured for 3 days.
(§5) Each of the cultured cells was treated with the two kinds of siRNAs having the nucleotide sequences of SEQ ID NOS: 5 and 176 to 178 (negative control siRNA (siCTRL) or IS3 siRNA) at a concentration of 100 pmol based on 200,000 cells, cultured for up to 72 hours, and the survival rates of these cells were compared by the CCK-8 assay (FIGS. 12A to 12C).

[4] = system: solid cancer cell lines (IMR-32, SNU-478, MG-63, Hs578T, U-87MG, SNU-886, MIA-PaCa-2, SK-MEL-2, RD, Hs 746T, J-82); experiment: Survival rate (CCK-8 assay) of solid cancer cell lines; assay type: cell-based; settings: 100 pmol siRNA per 200,000 cells, up to 72 hours; vs siCTRL; all 11 solid cancer lines
Source text: as §4, §5

Compound	survival rate of the cell line ([1]; siRNA in combination with first generation anticancer agent (imatinib 10 nM))	survival rate of the cell line ([1]; siRNA in combination with second generation anticancer agent (nilotinib or dasatinib 10 nM))	survival rate of the cell line ([1]; siRNA used alone)	survival rate of the cell line (K562)	survival rate of the cell line (CML-T1 cell line)	survival rate of the cell line [2]	phospho CrkL/CrkL ratio (phospho CrkL/CrkL ratio; HMGCLL1 IS3 siRNA and imatinib in combination)	phospho CrkL/CrkL ratio (phospho CrkL/CrkL ratio; treated individually)	percentage of the cells located in the G0/G1 phase (K562 cells)	percentage of the cells located in the G0/G1 phase (LAMA-84 cells)	survival rate of each cell line [3]	survival rate of each cell line [4]
HMGCLL1 IS3 siRNA: siRNA to HMGCLL1 isoform 3: sense GGUACCACAGGUUGCUGCU (SEQ ID NO: 178), antisense AGCAGCAACCUGUGGUACC (SEQ ID NO: 5) (listed as RNA, chemistry not given here)	further significantly reduced	further significantly reduced	reduced	reduced	reduced	not affected	reduced to the lowest level	reduced to similar levels	increased	increased	significantly reduced	significantly reduced
Cc1ccc(NC(=O)c2ccc(CN3CCN(C)CC3)cc2)cc1Nc1nccc(-c2cccnc2)n1 [imatinib, reference compound]	–	–	–	reduced	reduced	–	–	–	–	–	–	–
